Values quoted from earlier work as cited in publication PMC8147660 (The Prostate, 2018).

How the values were obtained:
[1] = target: PSA; conditions: read-out: PSA Ki; described in previous studies
[2] = target: chymotrypsin; conditions: read-out: Ki for chymotrypsin; described in previous studies
[3] = cleared via A2M-receptor/LRP in the liver

Substance | Ki [1] [nM] | Ki [2] [nM] | Plasma half-life of the complex [3]
Ahx-FSQn(boro)Bpg | 72 | 580 | 
PSA-A2M: PSA complexed with the serum protease inhibitor alpha-2-macroglobulin |  |  | a few minutes
